Where a SMILES comes first, the peptide text is derived from it. [ ]: non-standard residue; d: D form. Orn = NCCC[CH](N)C(=O)O
Test: method code SF-AS, from DOI: 10.1002/jps.2600830720, PMID: 7965659
Details: pH 2.0

| SMILES | logD |
| --- | --- |
| CC(=O)N[C@@H](CC(C)C)C(=O)N[C@@H](CC(=O)O)C(=O)N[C@@H](CC(C)C)C(N)=O | 0.16 |
| CCC(C)C(NC(=O)C(CC(C)C)NC(C)=O)C(=O)NC(CCC(=O)O)C(N)=O (stereo not drawn) (Ac-Leu-Ile-Glu-NH2; configuration not given here) | 0.07 |
| CC(=O)N[C@@H](CC(C)C)C(=O)N[C@@H](CCC(=O)O)C(=O)N[C@@H](Cc1ccccc1)C(N)=O | 0.48 |
| CCC(C)C(NC(C)=O)C(=O)NC(CC(C)C)C(=O)NC(CC(=O)O)C(N)=O (stereo not drawn) (Ac-Ile-Leu-Asp-NH2; configuration not given here) | -0.04 |
| CC[C@H](C)[C@H](NC(=O)[C@H](CCC(=O)O)NC(C)=O)C(=O)N[C@@H](Cc1ccccc1)C(N)=O (Ac-Glu-Ile-Phe-NH2) | 0.43 |
| CC(=O)NC(Cc1ccccc1)C(=O)NC(CCC(=O)O)C(=O)NC(Cc1ccccc1)C(N)=O (stereo not drawn) (Ac-Phe-Glu-Phe-NH2; configuration not given here) | 0.65 |

The remaining lines, values ahead:

| logD | SMILES |
| --- | --- |
| 0.4 | CC(=O)N[C@@H](CC(=O)O)C(=O)N[C@@H](Cc1ccccc1)C(=O)N[C@@H](CC(C)C)C(N)=O |
| 0.39 | CC(=O)N[C@@H](Cc1ccccc1)C(=O)N[C@@H](CC(=O)O)C(=O)N[C@@H](CC(C)C)C(N)=O |
| 0.32 | CC(=O)N[C@@H](CCC(=O)O)C(=O)N[C@@H](Cc1ccccc1)C(=O)N[C@@H](CC(C)C)C(N)=O |
| 0.61 | CC[C@H](C)[C@H](NC(=O)[C@H](CC(=O)O)NC(C)=O)C(=O)N[C@@H](Cc1ccccc1)C(N)=O |

Same assay, conditions: pH 7.0

| logD | SMILES |
| --- | --- |
| -0.63 | CSCC[C@H](NC(=O)[C@H](C)NC(C)=O)C(=O)N[C@H](C(N)=O)C(C)C |
| -0.28 | CSCC[C@H](NC(C)=O)C(=O)N[C@H](C(N)=O)C(C)C |
| 0.42 | CSCC[C@H](NC(C)=O)C(=O)N[C@@H](Cc1ccccc1)C(N)=O |
| 1.28 | CC[C@H](C)[C@H](NC(C)=O)C(=O)N[C@@H](CCSC)C(=O)N[C@@H](Cc1ccccc1)C(N)=O (Ac-Ile-Met-Phe-NH2) |
| -0.21 | CC[C@H](C)[C@H](NC(C)=O)C(=O)N[C@@H](C)C(=O)N[C@H](C(N)=O)C(C)C |

Same assay, conditions: pH 10.0

| SMILES | logD |
| --- | --- |
| CC(=O)NC(CC(C)C)C(=O)NC(CCCN)C(=O)NC(Cc1ccccc1)C(N)=O (stereo unspecified) (Ac-Leu-[Orn]-Phe-NH2; configuration not given here) | 0.53 |
| CC[C@H](C)[C@H](NC(=O)[C@H](CCCN)NC(C)=O)C(=O)N[C@H](C(N)=O)C(C)C | -0.43 |
| CC(=O)NCC(=O)N[C@@H](Cc1ccccc1)C(=O)N[C@@H](Cc1c[nH]cn1)C(N)=O | -0.92 |
| CC(=O)NC(CCCN)C(=O)NC(CC(C)C)C(N)=O (stereo unspecified) (Ac-[Orn]-Leu-NH2; configuration not given here) | -0.71 |
| CC(=O)NC(CCCN)C(=O)NC(Cc1ccccc1)C(N)=O (stereo unspecified) | -0.41 |

Results, then the molecule that gave them:

| logD | SMILES |
| --- | --- |
| 1 | CC(=O)NC(Cc1ccccc1)C(=O)NC(Cc1c[nH]c2ccccc12)C(=O)NC(Cc1cnc[nH]1)C(N)=O (stereo not drawn) (Ac-Phe-Trp-His-NH2; configuration not given here) |
| 0.64 | CC(=O)NC(Cc1ccccc1)C(=O)NC(Cc1c[nH]cn1)C(=O)NC(CC(C)C)C(N)=O (stereo not drawn) (Ac-Phe-His-Leu-NH2; configuration not given here) |
| -0.24 | CC[C@H](C)[C@H](NC(C)=O)C(=O)N[C@@H](Cc1c[nH]cn1)C(=O)N[C@H](C(N)=O)C(C)C |
| 0.54 | CC(=O)NC(CCCN)C(=O)NC(Cc1ccccc1)C(=O)NC(CC(C)C)C(N)=O (stereo not drawn) (Ac-[Orn]-Phe-Leu-NH2; configuration not given here) |
| 0.44 | CCC(C)C(NC(=O)C(Cc1c[nH]cn1)NC(C)=O)C(=O)NC(Cc1ccccc1)C(N)=O (stereo not drawn) (Ac-His-Ile-Phe-NH2; configuration not given here) |
| 0.31 | CC(=O)NC(Cc1c[nH]c2ccccc12)C(=O)NC(Cc1cnc[nH]1)C(=O)NC(C(N)=O)C(C)C (stereo not drawn) (Ac-Trp-His-Val-NH2; configuration not given here) |
